Data as given in US11160808B2, “Compounds that enhance Atoh1 expression” (Massachusetts Eye & Ear Infirmary, priority 2008, dated 2021).
Like-named read-outs stand apart in the source and are kept apart here.

Key:
[1] = system: Math1 enhancer and minimal promoter Luciferase reporter in HEK cells; experiment: Math1 Luciferase reporter assay in HEK cells; type: cell-based, human
Description: A human embryonic kidney (HEK) cell line stably expressing a Luciferase gene controlled by an Math1 enhancer and minimal promoter was used in a high-throughput screen (HTS) of 144,000 small molecules to identify compounds that increase Math1 expression (i.e., transcription and/or translation). Such compounds can be used to increase the conversion of stem cells, progenitor cells, and support cells to or towards a hair cell. Screens to identify such compounds are described by Li et al., (U.S. Publication No. 2005/0287127) and Li et al., (U.S. application Ser. No. 11/953,797).
HEK cells stably expressing the Math1 Luciferase reporter were plated onto 384 well plates and cultured overnight in medium containing 10% fetal calf serum (FCS). Activation of the Math1 enhancer was measured by the increase in luminescence on a plate reader following addition of a luciferase detection agent. The assay was optimized for cell number, time of incubation, volume of medium, cell lysis reagent and luciferase reagent. Luminescence levels were compared in cells with the Math1-luciferase construct with and without retinoic acid (1 μM), and/or a luciferase construct with and without the Math1 enhancer and minimal promoter region.
To improve assay sensitivity, and reduce the coefficient of variation (CV), a more sensitive luciferase reagent (BriteLite luciferase reporter assay reagent, Perkin Elmer) was used, and Triton-X-100 was added to the lysis reagent to ensure complete lysis of the cells. Following these changes a CV of 4.2% was recorded. These conditions were used for all high-throughput screens. The luminescence threshold for a compound to be positive was defined as a 2-fold increase above the control (e.g., cells exposed to DMSO).
Cells were seeded on 384 well plates and allowed to attach overnight at 37° C. with 5% CO2 in the absence of growth factors. Math1 activation was measured by the increase in luminescence on a plate reader following addition of a luciferase detection reagent. Luminescence was assessed at 24, 48, and 72 hours. These conditions were used to screen 144,000 compounds contained in the small molecule libraries at Harvard University's Laboratory for Drug Discovery in Neurodegeneration (LDDN).
HTS were performed using HEK-Math1 cells seeded in 384 well plates. One compound was added per well using pin transfer. The final concentration of each compound was […]. Cell were incubated in the presence of a compound for 48 hours at 37° C. with 5% CO2. Cell lysates then were collected and bioluminescence determined. Luminescence values were compared normalized against DMSO.
About 20000 compounds were screened per week in 50 plates of 384 well with the aid of robotic systems (Beckman Biomek FX). Compounds were screened at an average final concentration of 0.7 μM (in 0.04% DMSO) with each plate containing 16 wells of 1 μM retinoic acid, as a positive control, and 16 wells of 0.04% DMSO, as a vehicle control. Percent activation of luminescence in the test compounds was determined for cells treated with the compounds against cells treated with DMSO.
Ten compounds, randomly selected from the group of 110 compounds identified in Example 2, were further evaluated, as follows. HEK cells were plated on 96 well plates at a density of 100000 cells per well. One day after plating, 0.1, 1, and 5 μM of each positive compound was added per well in a 10% fetal bovine serum (FBS) DMEM solution. Cells were then lysed 48 hours after addition of the compound and Math1 expression was analyzed using a luciferase reporter assay, as described above, and real-time PCR.
The half maximal inhibitory concentration (IC50) and median lethal dose or Lethal Dose, 50% (LD50) were determined for each of the compounds identified in Example 2 using standard laboratory techniques. IC50 is a measure of the effectiveness of a compound in inhibiting biological or biochemical function. LD50 is the amount of a compound required to kill half the members of a tested population.

[2] = LD50 (median lethal dose) determination; type: cell-based
Description: IC50 is a measure of the effectiveness of a compound in inhibiting biological or biochemical function. LD50 is the amount of a compound required to kill half the members of a tested population.

[3] = Homo sapiens, HEK293; read-out: IC50
[4] = Homo sapiens, HEK293; read-out: Maximum (Fold DMSO)

Compound | IC50 [1, 3] [nM] | maximal fold induction [1, 4] | LD50 [2] [µM] | IC50 ([1]; Homo sapiens, HEK293) [nM] | maximal fold induction ([1]; Homo sapiens, HEK293, read-out: Maximum (Fold DMSO))
COc1ccc(-c2nc3ccc(Cl)cc3n2OCc2cc(C)cc(C)c2)cc1 [CP-0000554, 6-chloro-1-(3,5-dimethylbenzyloxy)-2-(4-methoxyphenyl)-1H-benzo[d]imidazole] | 400 | 2 | >30 | – | –
Cc1cccc(Nc2nc(N)c(C(=O)C(C)C)s2)c1 [CP-0134381, 1-(4-amino-2-(m-tolylamino)thiazol-5-yl)-2-methylpropan-1-one] | 2000 | 2.2 | >10 | – | –
O=C(NCC1CCCO1)c1sc2ccccc2c1Cl (stereo not drawn) [CP-0068577, 3-chloro-N-((tetrahydrofuran-2-yl)methyl)benzo[b]thio-phene-2-carboxamide] | 1000 | 1.6 | >10 | – | –
Brc1ccc(-c2nc(-c3cccnc3)no2)cc1 [CP-0070367, 5-(4-bromophenyl)-3-(pyridin-3-yl)-1,2,4-oxadiazole] | 2000 | 1.7 | >10 | – | –
c1ccc(-c2cc3ccccc3[nH]2)nc1 [CP-0072096, 2-(pyridin-2-yl)-1H-indole] | 6000 | 2.2 | >10 | – | –
CCn1ccc(C(=O)Nc2cc(Cl)ccc2Cl)n1 [CP-0070844, N-(2,5-dichlorophenyl)-1-ethyl-1H-pyrazole-3-carboxamide] | 2000 | 1.7 | >10 | – | –
c1ccc2cc(-c3cc4ccccc4[nH]3)ccc2c1 [CP-0010539, 2-(naphthalen-2-yl)-1H-indole] | 500 | 2.1 | >10 | – | –
COc1ccccc1-c1nc(-c2ccc(C)cc2)no1 [CP-0067246, 5-(2-methoxyphenyl)-3-p-tolyl-1,2,4-oxadiazole] | 1800 | 1.5 | >10 | – | –
COc1ccccc1N1CCN(c2ccc3ccccc3n2)CC1 [CP-0087799, 2-(4-(2-methoxyphenyl)piperazin-1-yl)quinoline] | 1000 | 2.1 | >10 | – | –
Brc1ccc(C2C=C(c3cccnc3)Nc3nc4ccccc4n32)cc1 (stereo not drawn) [CP-0131763, 2-(3-pyridyl)-4-(4-bromophenyl)-1,4-dihydrobenzo[4,5]imi-dazo[1,2-a]pyrimidine] | – | – | >10 | 2000 | 2.4
O=C(NCCSc1ccccc1)c1cncc(Br)c1 [CP-0089966, 5-bromo-N-(2-(phenylthio)ethyl) nicotinamide] | > 10000 | 2.2 | >10 | – | –
O=C(Nc1ccc(I)cc1)c1ccco1 [CP-0072253, N-(4-iodophenyl)furan-2-carboxamide] | 1300 | 2 | >10 | – | –
c1ccc2sc(-c3cnc(N4CCOCC4)nc3)cc2c1 [CP-0059563, 4-(5-(benzo[b]thiophen-2-yl)pyrimidin-2-yl)morpholine] | > 10000 | 1.9 | >10 | – | –
O=C(Nc1ccc(Cl)cn1)c1cccs1 [CP-0072156, N-(5-chloropyridin-2-yl)thiophene-2-carboxamide] | 2000 | 2 | >10 | – | –
Cc1ccccc1OCc1nc2ccccc2[nH]1 [CP-0109953, 2-(o-tolyloxymethyl)-1H-benzo[d]imidazole] | 100 | 1.8 | >10 | – | –
O=C(CSc1nc2ccccc2c(=O)n1NC(=O)c1ccccc1)c1ccc(F)cc1 [CP-0036187, N-(2-(2-(4-fluorophenyl)-2-oxoethylthio)-4-oxoquinazolin-3(4H)-yl)benzamide] | 1000 | 2.3 | >10 | – | –

Compound | IC50 [1, 3] [nM] | maximal fold induction [1, 4] | LD50 [2] [µM] | IC50 ([1]; Homo sapiens, HEK293) [nM] | maximal fold induction ([1]; Homo sapiens, HEK293, read-out: Maximum (Fold DMSO))
CC(C)COc1ccc(C2Nc3ccccc3C(=O)N2c2ccc3ccccc3c2)cc1 (stereo not drawn) [CP-0034360, 2-(4-isobutoxyphenyl)-3-(naphthalen-2-yl)-2,3-dihydroquinazolin-4(1H)-one] | 1000 | 2 | >10 | – | –
Cn1c(COc2ccc(F)cc2)nc2ccccc21 [CP-0074806, 2-((4-fluorophenoxy)methyl)-1-methyl-1H-benzo[d]imidazole] | 700 | 1.8 | >10 | – | –
O=C(Nc1ccccc1Cl)C(=O)c1c[nH]c2ccccc12 [CP-0078448, N-(2-chlorophenyl)-2-(1H-indol-3-yl)-2-oxoacetamide] | > 10000 | 1.9 | >10 | – | –
Fc1ccc(-c2cnc(N3CCOCC3)nc2)cc1 [CP-0059642, 4-(5-(4-fluorophenyl)pyrimidin-2-yl)morpholine] | 1000 | 2.2 | >10 | – | –
COc1ccc(-c2nc3ccc(Cl)cc3n2OCc2ccc(C)cc2)cc1 [CP-0000553, 6-chloro-2-(4-methoxyphenyl)-1-(4-methylbenzyloxy)-1H-benzo[d]imidazole] | 10 | 2 | >30 | – | –
O=C(CSc1nc2ccccc2o1)Nc1ccccc1Cl [CP-0029300, 2-(benzo[d]oxazol-2-ylthio)-N-(2-chlorophenyl)acetamide] | 1600 | 2 | >10 | – | –
Cc1cccc(-c2ccc3ccccc3n2)c1 [CP-0072092, 2-m-tolylquinoline] | 1000 | 1.7 | >10 | – | –
CCc1c(C)[nH]c2cc(-c3ccc(Cl)cc3)nn2c1=O [CP-0063375, 2-(4-chlorophenyl)-6-ethyl-5-methylpyrazolo[1,5-a]pyrimidin-7(4H)-one] | 2200 | 1.9 | >10 | – | –
Cn1nccc1C(=O)Nc1nc2ccccc2s1 [CP-0067233, N-(benzo[d]thiazol-2-yl)-1-methyl-1H-pyrazole-5-carboxamide] | 2000 | 1.8 | >10 | – | –
Cc1cccc(/C(N)=N/OC(=O)c2cccnc2)c1 [CP-0069934, (Z)-3-methyl-N′-(nicotinoyloxy) benzimidamide] | 2000 | 1.7 | >10 | – | –
O=C(Nc1ccc(Cl)cn1)c1sc2ccccc2c1Cl [CP-0064314, 3-chloro-N-(5-chloropyridin-2-yl)benzo[b]thiophene-2-carboxamide] | > 10000 | 1.7 | >10 | – | –
Cn1c(CCc2ccc(N)cc2)nc2ccccc21 [CP-0066829, 4-(2-(1-methyl-1H-benzo[d]imidazol-2-yl)ethyl)aniline] | 1000 | 1.8 | >10 | – | –
COc1cccc(C(=O)Nc2nc3ccc(F)cc3s2)c1 [CP-0107060, N-(6-fluorobenzo[d]thiazol-2-yl)-3-methoxybenzamide] | 100 | 2.2 | >10 | – | –
COc1ccc(-c2csc(-c3c(C)noc3N)n2)cc1 [CP-0105343, 4-(4-(4-methoxyphenyl)thiazol-2-yl)-3-methylisoxazol-5-amine] | 3000 | 2 | >10 | – | –
COc1ccc(-c2cn3ccsc3n2)cc1 [CP-0061401, 6-(4-methoxyphenyl) imidazo[2,1-b]thiazole] | 600 | 1.8 | >10 | – | –
